Like-named read-outs stand apart in the source and are kept apart here.
Assays:
[1] = Lacosamide plasma concentration of a patient, HPLC-UV assay with internal standard; type: in vivo; conditions: human, patient taking 100 mg twice a day, sample 7 h after the last administration, read-out: measured lacosamide plasma concentration
Protocol: 100 µL of plasma are transferred into Eppendorf tubes.
Calibration samples are added 10 µL working solution.
Study samples are added 10 µL of working solution int standard
After mixing 300 µL of methanol were added, the mixture is vortexed again and centrifuged
10 minutes at room temperature. 70 µL of the supernatant were transferred into a autosamplervial.
15 µL were injected into the HPLC-system.
For calibration the mean response factor for the peakheight ratios at 10 µg/mL was calculated: • RF = peakheight lacosamide/ peakheight int. Std. • Concentration in samples were calculated: 10/RFcalibration*RFsample
A patient taking 100 mg twice a day is suffering from seizures. A sample is taken 7 h after the last administration of lacosamide. The measured lacosamide plasma concentration is 1.9 µg/mL. The newly requested Cmax is 5 µg/mL, and the new dose has to be dose_new = 100⋅(5⋅e^(-0.05⋅t))/(1.9⋅e^(-0.05⋅1h)) = 195 mg bid (dose has to be doubled) [formula]

[2] = Clinical study: saliva and plasma samples taken in parallel, correlation of lacosamide concentrations; type: in vivo, human; conditions: for Kp: human, saliva
Protocol: One embodiment of the present disclosure relates to the use of saliva samples as a tool to assess the concentration of lacosamide in the body of a mammal, particularly a human being. […] Preferably, saliva samples should be taken at least about 1 hour, preferably at least about 2 hours after an actual administration of lacosamide to said mammal to allow a steady state concentration to form, and to allow the proportional distribution of lacosamide into the saliva.
Accordingly, one embodiment of the current invention relates to the use of a saliva sample to assess the concentration of lacosamide in the body of a mammal, particularly in the plasma of a patient This can be done based on the recognition that the concentration of lacosamide in saliva is about 1.17 times the concentration in plasma. Based on the measurement of lacosamide in saliva, the concentration in plasma can be easily assessed using the equation C plasma= C saliva x about 0.855 (see Example 3 in the experimental part). The determination of lacosamide in saliva should be done in the steady state, which is usually reached after about one hour to two hours after the last drug administration to the mammal/patient from which the saliva sample is to be taken.
In a clinical study saliva and plasma samples have been taken in parallel.
The concentrations of lacosamide can be calculated using the following equations: Saliva concentration of lacosamide = 0.065 + 1.1697*plasma concentration of lacosamide [formula] Plasma concentration of lacosamide = 0.855*saliva concentration of lacosamide [formula]
These equations were validated by comparing measured lacosamide plasma concentrations with plasma concentrations predicted from measured saliva concentrations.

[3] = Expected plasma Cmax at bid doses, used for individual dose adaptation; type: in vivo
Protocol: Based on the determination of the actual lacosamide concentration in plasma (Cmessured) measured at time t (in hours after actual administration) and the comparison with the target concentration, an individual dosing may be adapted according to the following formula dose_new = dose_old⋅(Cmax,expected ⋅e^(-0.05⋅t))/(Cmeasured ⋅e^(-0.05⋅1h)) [formula]
The expected Cmax is usually at about 5, 10, 15, or 20 µg/mL for dose 100, 200, 300, or 400 mg bid.

## COC[C@@H](NC(C)=O)C(=O)NCc1ccccc1 [Lacosamide, (R)-2-acetamido-N-benzyl-3-methoxypropionamide]
[1]
  concentration at 7 h: 1900 ng/mL
[2]; Figure 2
  correlation between lacosamide concentrations in saliva and plasma: excellent correlation
[2]; regression equation with intercept 0.065, read-out: slope of Saliva concentration of lacosamide versus plasma concentration of lacosamide
  Kp: 1.17
[2]; steady state, about one to two hours after last administration, read-out: concentration of lacosamide in saliva relative to the concentration in plasma
  Kp: ~1.17
[3]; dose 100 mg bid
  Cmax: ~5000 ng/mL
[3]; dose 200 mg bid
  Cmax: ~10000 ng/mL
[3]; dose 300 mg bid
  Cmax: ~15000 ng/mL
[3]; dose 400 mg bid
  Cmax: ~20000 ng/mL
